{
  "source": "patent US20240327412A1",
  "about": "“FACTOR XIIA INHIBITORS” (KALVISTA PHARMACEUTICALS LIMITED, priority 2021, published 2024)",
  "note": "pIC50: −log10 of the molar value.",
  "data": [
    {"biological_target": "T1, Human Factor XIIa (Homo sapiens, UniProt P00748)", "T1 construct": "Proteolytic cleavage of FXII to heavy and light chains of FXIIa dramatically increases catalytic activity; purchased Enzyme Research Laboratories", "T1 sequence (P00748 373-615 limits assumed)": "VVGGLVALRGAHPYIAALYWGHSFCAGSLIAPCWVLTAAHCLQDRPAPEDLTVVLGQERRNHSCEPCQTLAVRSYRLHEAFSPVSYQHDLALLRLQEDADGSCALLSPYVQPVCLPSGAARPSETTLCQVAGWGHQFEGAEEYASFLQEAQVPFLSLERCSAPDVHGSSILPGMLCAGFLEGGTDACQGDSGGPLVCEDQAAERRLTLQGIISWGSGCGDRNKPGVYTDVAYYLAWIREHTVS", "T1 sequence (P00748 20-372 partner limits assumed)": "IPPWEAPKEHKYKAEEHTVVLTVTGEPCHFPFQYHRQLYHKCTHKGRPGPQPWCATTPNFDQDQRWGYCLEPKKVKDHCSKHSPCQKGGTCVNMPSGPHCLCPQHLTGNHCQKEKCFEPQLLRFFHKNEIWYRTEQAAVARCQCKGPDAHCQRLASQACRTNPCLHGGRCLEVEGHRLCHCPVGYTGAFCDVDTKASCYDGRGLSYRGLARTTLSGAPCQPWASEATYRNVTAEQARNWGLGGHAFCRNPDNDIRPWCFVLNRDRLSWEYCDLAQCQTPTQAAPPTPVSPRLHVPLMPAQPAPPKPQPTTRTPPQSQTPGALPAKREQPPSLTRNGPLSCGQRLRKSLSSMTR", "test": "Determination of FXIIa inhibition (fluorogenic substrate H-DPro-Phe-Arg-AFC, IC50 assay)", "format": "biochemical", "settings": "substrate at Km concentration, 25° C.; category scale; read-out: Human FXII IC50 (nm)", "method": "In vitro inhibition of Factor XIIa was determined using an IC50 assay based on standard literature methods (see e.g Baeriswyl et al., ACS Chem. Biol., 2015, 10 (8) 1861; Bouckaert et al., European Journal of Medicinal Chemistry 110 (2016) 181). Human Factor XIIa (Enzyme Research Laboratories) was incubated at 25° C. with the fluorogenic substrate H-DPro-Phe-Arg-AFC (Peptide Protein Science) and various concentrations of the test compound. Protease activity was measured by monitoring the accumulation of liberated fluorescence from the substrate over 5 min at 25° C. The linear rate of fluorescence increase per minute was expressed as percentage (%) activity. The Km for the cleavage of the substrate by FXIIa was determined by standard transformation of the Michaelis-Menten equation. The compound inhibitor assays were performed at substrate Km concentration. IC50 values were calculated as the concentration of inhibitor giving 50% inhibition (IC50) of the uninhibited enzyme activity (100%).", "values": [
      {"compound": "Nc1nccc2c(NCC34CC(COc5ccn6ncnc6c5)(C3)C4)cccc12", "note": "[Example 1110, N5-((3-(([1,2,4]triazolo[1,5-a]pyridin-7-yloxy)methyl)bicyclo[1.1.1]pentan-1-yl)methyl)isoquinoline-1,5-diamine]", "pIC50": "5.00 to 5.52"},
      {"compound": "Nc1nccc2c(NCC34CC(NC(=O)c5ccc6nnc(C(F)F)n6c5)(C3)C4)cccc12", "note": "[Example 1132, N-(3-(((1-aminoisoquinolin-5-yl)amino)methyl)bicyclo[1.1.1]pentan-1-yl)-3-(difluoromethyl)-[1,2,4]triazolo[4,3-a]pyridine-6-carboxamide]", "pIC50": "4.40 to 5.00"},
      {"compound": "Nc1nccc2c(NCC34CC(COc5ccc6c(c5)CNC6=O)(C3)C4)cccc12", "note": "[Example 1133, 5-((3-(((1-aminoisoquinolin-5-yl)amino)methyl)bicyclo[1.1.1]pentan-1-yl)methoxy)isoindolin-1-one]", "pIC50": "6.52 to 7.00"},
      {"compound": "Cc1cc(OCC23CC(CNc4cccc5c(N)nccc45)(C2)C3)cc(=O)n1C", "note": "[Example 1134, 4-((3-(((1-aminoisoquinolin-5-yl)amino)methyl)bicyclo[1.1.1]pentan-1-yl)methoxy)-1,6-dimethylpyridin-2(1H)-one]", "pIC50": "6.52 to 7.00"},
      {"compound": "Nc1nccc2c(NCC34CC(COc5ccn6cnnc6c5)(C3)C4)cccc12", "note": "[Example 1135, N5-((3-(([1,2,4]triazolo[4,3-a]pyridin-7-yloxy)methyl)bicyclo[1.1.1]pentan-1-yl)methyl)isoquinoline-1,5-diamine]", "pIC50": "6.00 to 6.52"},
      {"compound": "Nc1nccc2c(NCC34CC(COc5cc6nccn6cn5)(CO3)C4)cccc12", "note": "[Example 6623, N5-((4-((imidazo[1,2-c]pyrimidin-7-yloxy)methyl)-2-oxabicyclo[2.1.1]hexan-1-yl)methyl)isoquinoline-1,5-diamine]", "pIC50": "5.00 to 5.52"},
      {"compound": "Nc1nccc2c(NCC34CC(COc5ccc6ncc(F)n6c5)(CO3)C4)cccc12", "note": "[Example 6625, N5-((4-(((3-fluoroimidazo[1,2-a]pyridin-6-yl)oxy)methyl)-2-oxabicyclo[2.1.1]hexan-1-yl)methyl)isoquinoline-1,5-diamine]", "pIC50": "6.00 to 6.52"},
      {"compound": "Nc1nccc2c(NCC34CC(COc5cc(C(F)(F)F)c6nccn6c5)(CO3)C4)cccc12", "note": "[Example 6630, N5-((4-(((8-(trifluoromethyl)imidazo[1,2-a]pyridin-6-yl)oxy)methyl)-2-oxabicyclo[2.1.1]hexan-1-yl)methyl)isoquinoline-1,5-diamine]", "pIC50": "6.52 to 7.00"},
      {"compound": "COc1cc(OCC23COC(CNc4cccc5c(N)nccc45)(C2)C3)cn2ccnc12", "note": "[Example 6631, N5-((4-(((8-methoxyimidazo[1,2-a]pyridin-6-yl)oxy)methyl)-2-oxabicyclo[2.1.1]hexan-1-yl)methyl)isoquinoline-1,5-diamine]", "pIC50": "6.52 to 7.00"},
      {"compound": "Cc1cn2cc(OCC34COC(CNc5cccc6c(N)nccc56)(C3)C4)ccc2n1", "note": "[Example 6633, N5-((4-(((2-methylimidazo[1,2-a]pyridin-6-yl)oxy)methyl)-2-oxabicyclo[2.1.1]hexan-1-yl)methyl)isoquinoline-1,5-diamine]", "pIC50": "6.52 to 7.00"},
      {"compound": "Nc1nccc2c(NCC34CC(COc5ccc6nncn6c5)(CO3)C4)cccc12", "note": "[Example 6634, N5-((4-(([1,2,4]triazolo[4,3-a]pyridin-6-yloxy)methyl)-2-oxabicyclo[2.1.1]hexan-1-yl)methyl)isoquinoline-1,5-diamine]", "pIC50": "5.52 to 6.00"},
      {"compound": "Nc1nccc2c(NCC34CC(CN5C(=O)c6ccc(O)cc6C5=O)(CO3)C4)cccc12", "note": "[Example 6635, 2-((1-(((1-aminoisoquinolin-5-yl)amino)methyl)-2-oxabicyclo[2.1.1]hexan-4-yl)methyl)-5-hydroxyisoindoline-1,3-dione]", "pIC50": "4.40 to 5.00"},
      {"compound": "Nc1nccc2c(NCC34CC(COc5ccc6c(c5)C(=O)NC6=O)(CO3)C4)cccc12", "note": "[Example 6636, 5-((1-(((1-aminoisoquinolin-5-yl)amino)methyl)-2-oxabicyclo[2.1.1]hexan-4-yl)methoxy)isoindoline-1,3-dione]", "pIC50": "5.00 to 5.52"},
      {"compound": "Nc1nccc2c(NCC34CC(COc5ccc6c(c5)CCNC6=O)(CO3)C4)cccc12", "note": "[Example 6637, 6-((1-(((1-aminoisoquinolin-5-yl)amino)methyl)-2-oxabicyclo[2.1.1]hexan-4-yl)methoxy)-3,4-dihydroisoquinolin-1(2H)-one]", "pIC50": "6.52 to 7.00"},
      {"compound": "Nc1nccc2c(NCC34CC(COc5ccc6nncn6n5)(CO3)C4)cccc12", "note": "[Example 6638, N5-((4-(([1,2,4]triazolo[4,3-b]pyridazin-6-yloxy)methyl)-2-oxabicyclo[2.1.1]hexan-1-yl)methyl)isoquinoline-1,5-diamine]", "pIC50": "5.52 to 6.00"},
      {"compound": "Nc1nccc2c(NCC34CC(COc5ccc6ncc(C7CC7)n6c5)(CO3)C4)cccc12", "note": "[Example 6639, N5-((4-(((3-cyclopropylimidazo[1,2-a]pyridin-6-yl)oxy)methyl)-2-oxabicyclo[2.1.1]hexan-1-yl)methyl)isoquinoline-1,5-diamine]", "pIC50": "7.00 to 8.00"},
      {"compound": "CN1CCc2cc(OCC34COC(CNc5cccc6c(N)nccc56)(C3)C4)ccc2C1=O", "note": "[Example 6640, 6-((1-(((1-aminoisoquinolin-5-yl)amino)methyl)-2-oxabicyclo[2.1.1]hexan-4-yl)methoxy)-2-methyl-3,4-dihydroisoquinolin-1(2H)-one]", "pIC50": "6.52 to 7.00"},
      {"compound": "CC(C)c1cc(OCC23COC(CNc4cccc5c(N)nccc45)(C2)C3)cn2ccnc12", "note": "[Example 6641, N5-((4-(((8-isopropylimidazo[1,2-a]pyridin-6-yl)oxy)methyl)-2-oxabicyclo[2.1.1]hexan-1-yl)methyl)isoquinoline-1,5-diamine]", "pIC50": "6.52 to 7.00"},
      {"compound": "Nc1nccc2c(NCC34CC(COc5ccc6c(c5)C(=O)NC6)(CO3)C4)cccc12", "note": "[Example 6642, 6-((1-(((1-aminoisoquinolin-5-yl)amino)methyl)-2-oxabicyclo[2.1.1]hexan-4-yl)methoxy)isoindolin-1-one]", "pIC50": "6.52 to 7.00"},
      {"compound": "Cn1ccc2cc(OCC34COC(CNc5cccc6c(N)nccc56)(C3)C4)ccc2c1=O", "note": "[Example 6643, 6-((1-(((1-aminoisoquinolin-5-yl)amino)methyl)-2-oxabicyclo[2.1.1]hexan-4-yl)methoxy)-2-methylisoquinolin-1(2H)-one]", "pIC50": "6.00 to 6.52"},
      {"compound": "Nc1nccc2c(NCC34CC(COc5ccc6ncc(C(F)F)n6c5)(CO3)C4)cccc12", "note": "[Example 6644, 5-N-[[4-[[3-(Difluoromethyl)imidazo[1,2-a]pyridin-6-yl]oxymethyl]-2-oxabicyclo[2.1.1]hexan-1-yl]methyl]isoquinoline-1,5-diamine]", "pIC50": "6.00 to 6.52"},
      {"compound": "Nc1nccc2c(NCC34CC(Cn5cccn5)(CO3)C4)cccc12", "note": "[Example 6645, N5-((4-((1H-pyrazol-1-yl)methyl)-2-oxabicyclo[2.1.1]hexan-1-yl)methyl)isoquinoline-1,5-diamine]", "pIC50": "4.40 to 5.00"},
      {"compound": "Nc1nccc2c(NCC34CC(Cn5ccnc5)(CO3)C4)cccc12", "note": "[Example 6646, N5-((4-((1H-imidazol-1-yl)methyl)-2-oxabicyclo[2.1.1]hexan-1-yl)methyl)isoquinoline-1,5-diamine]", "pIC50": "4.00 to 4.40"},
      {"compound": "Nc1nccc2c(NCC34CC(Cn5nccn5)(CO3)C4)cccc12", "note": "[Example 6647, N5-((4-((2H-1,2,3-triazol-2-yl)methyl)-2-oxabicyclo[2.1.1]hexan-1-yl)methyl)isoquinoline-1,5-diamine]", "pIC50": "4.00 to 4.40"},
      {"compound": "Nc1nccc2c(NCC34CC(Cn5ccnn5)(CO3)C4)cccc12", "note": "[Example 6648, N5-((4-((1H-1,2,3-triazol-1-yl)methyl)-2-oxabicyclo[2.1.1]hexan-1-yl)methyl)isoquinoline-1,5-diamine]", "pIC50": "4.40 to 5.00"},
      {"compound": "Nc1nccc2c(NCC34CC(CN5CCCC5=O)(CO3)C4)cccc12", "note": "[Example 6649, 1-((1-(((1-aminoisoquinolin-5-yl)amino)methyl)-2-oxabicyclo[2.1.1]hexan-4-yl)methyl)pyrrolidin-2-one]", "pIC50": "4.40 to 5.00"},
      {"compound": "CC1(C)NC(=O)c2ccc(OCC34COC(CNc5cccc6c(N)nccc56)(C3)C4)cc21", "note": "[Example 6650, 5-((1-(((1-aminoisoquinolin-5-yl)amino)methyl)-2-oxabicyclo[2.1.1]hexan-4-yl)methoxy)-3,3-dimethylisoindolin-1-one]", "pIC50": "6.52 to 7.00"},
      {"compound": "Nc1nccc2c(NCC34CC(COc5cccc(N6CCCC6=O)c5)(CO3)C4)cccc12", "note": "[Example 6653, 1-(3-((1-(((1-aminoisoquinolin-5-yl)amino)methyl)-2-oxabicyclo[2.1.1]hexan-4-yl)methoxy)phenyl)pyrrolidin-2-one]", "pIC50": "6.00 to 6.52"},
      {"compound": "Nc1nccc2c(NCC34CC(COc5ccccc5N5CCCC5=O)(CO3)C4)cccc12", "note": "[Example 6654, 1-(2-((1-(((1-aminoisoquinolin-5-yl)amino)methyl)-2-oxabicyclo[2.1.1]hexan-4-yl)methoxy)phenyl)pyrrolidin-2-one]", "pIC50": "4.40 to 5.00"}
    ]}
  ]
}
